# Experimental data taken from patent publication US6558435B2, “Reactive crystallization method to improve particle size” (Pfizer, Inc., priority 2000, dated 2003).
# Where a name gives a salt, the structure may show the parent alone.
# Assays:
# Format in all cases: physicochemical
# [1] = Particle size of the jet milled seed (method not given)
# Procedure: A receiving vessel contained 250 ml of methanol and 250 ml of ethyl acetate to which 20 milligrams of jet milled 5,8,14-triazatetracyclo[10.3.1.0^2,11.0^4,9]-hexadeca-2(11),3,5,7,9-pentaene (L)-tartrate were added as seed. […] The receiver was equipped with magnetic stirrer to suspend the seed in the methanol-ethyl acetate solvent system. The impinging jet apparatus was submerged in the receiver vessel with both jets having inside diameters of 0.007 inches (ID).
# [2] = Particle size analysis (Aerosizer)
# Procedure: Flow of neat methanol and ethyl acetate was initiated through their respective jets at 20 ml/min for 5 seconds from separate reservoirs to establish steady state flow. By way of two 3-way valves the solutions of 5,8,14-triazatetracyclo[10.3.1.0^2,11.0^4,9]-hexadeca-2(11),3,5,7,9-pentaene free base solution and (L)-tartaric acid were switched on so they would impinge each other at the same 20 ml/min flow rate. The velocities through the jets were 13.4 meters/sec. After 1 minute of impingement the flows were stopped and the resulting slurry was allowed to age in the agitated receiver for 5 minutes. The slurry was vacuum filtered and dried at 40° C. overnight and delumped through a 500 micron sieve.
# [3] = Dry particle sizing analysis (SympaTec)
# Procedure: The crystals were dried in a vacuum oven at 50° C. and 10 inches of Hg with an air bleed for 24 hours. The dried material was sieved through a 30 mesh (600 μm) screen as a means to delump. Differential scanning calorimetry and x-ray diffraction confirmed the complete conversion to the Voriconazole free-base. No unreacted Voriconazole camphorsulfonate was detected.
# Specification of product conventionally obtained by jet milling is 90% less than 130 microns and 50% less than 50 microns.
# [4] = Particle size analysis by Malvern light scattering, hexane as dispersant; details: for D90, 90% of the particles by volume less than / volume mean diameter, D[4,3] / fines (particles below about 1 micron detected): Malvern, hydrochloride monohydrate; for D90, 90% of the particles by volume less than / volume mean diameter, D[4,3]: dried crystals; for particle size distribution compared with batch crystallized and milled sample: impinging jet material vs comparative 15.6 kg sample
# Procedure: X-ray diffraction (XRD) and differential scanning calorimetry (DSC) indicated the correct form of Ziprasidone hydrochloride monohydrate was produced by the impinging jet reactive crystallization process. The dried powder crystals were sieved through a 600 micron sieve as a means to delump. The particles were analyzed by Malvern using hexane as a dispersant.
# The crystals were sieved through a 600 micron sieve to delump and the particles were analyzed by Malvern using hexane as a dispersant. […] According to patent EU 0 965 343 A2 (08.06.1999), the most preferred mean particle size of Ziprasidone hydrochloride monohydrates is in the 5-30 micron range obtained through milling operations which the present invention achieves without the need for high intensity milling. The particle sizes stipulated herein and in the claims refer to particle sizes determined with Malvern light scattering.
# In a comparative 15.6 kg sample produced by the typical batch crystallization process method followed by milling using a pin mill at 10,000 rpm, the volume mean diameter, D[4,3], was 23.6 microns with 90% of the particles by volume less than 51 microns, while 5.4% of the batch by the volume distribution had particle size less than 1 micron indicating a much greater number of fines. […]
Structure (SMILES),"D90, 90% of the particles by volume less than [4] [microns]","volume mean diameter, D[4,3] [4] [microns]",fines (particles below about 1 micron detected) [4],particle size distribution compared with batch crystallized and milled sample [4],further results
"O=C(O)C(O)C(O)C(=O)O.c1cnc2cc3c(cc2n1)C1CNCC3C1 [seed, 5,8,14-triazatetracyclo[10.3.1.0^2,11.0^4,9]-hexadeca-2(11),3,5,7,9-pentaene (L)-tartrate]",–,–,–,–,volume mean diameter [1]: 2.7 microns
"O=C(O)C(O)C(O)C(=O)O.c1cnc2cc3c(cc2n1)C1CNCC3C1 [Example 5, 5,8,14-triazatetracyclo[10.3.1.0^2,11.0^4,9]-hexadeca-2(11),3,5,7,9-pentaene L-tartrate]",–,–,–,–,5% of particles less than [2]: 5 microns; 95% of the particles less than [2]: 15 microns; volume mean diameter ([2]; delumped through 500 micron sieve): 10 microns
"C[C@@H](c1ncncc1F)[C@](O)(Cn1cncn1)c1ccc(F)cc1F [Example 4, Voriconazole free base]",–,–,–,–,"50% of particles (D[v,0.50]) less than [3]: 18 microns; 90% of particles (D[v,0.9]) less than [3]: 41 microns; volume mean diameter ([3]; sieved through 30 mesh): 22 microns"
"O=C1Cc2cc(CCN3CCN(c4nsc5ccccc45)CC3)c(Cl)cc2N1 [Example 1, Ziprasidone hydrochloride monohydrate]",83,43,No particles with diameters of less that 0.9 micron were detected,narrower particle size distribution with fewer fines produced,–
"O=C1Cc2cc(CCN3CCN(c4nsc5ccccc45)CC3)c(Cl)cc2N1 [Example 3, Ziprasidone hydrochloride monohydrate]",210,104,No particles below 1 micron were measured,–,–
"O=C1Cc2cc(CCN3CCN(c4nsc5ccccc45)CC3)c(Cl)cc2N1 [Example 2, Ziprasidone hydrochloride monohydrate]",41,22.5,No particles of less that 1.0 micron were detected,narrower particle size distribution with fewer fines produced,–
